Source: patent US11206830B2, “Herbicidal composition comprising glufosinate or a salt thereof and pyroxasulfone” (BASF SE, priority 2008, dated 2021)
Read-outs that look alike come from different tables or passages of the source.

What was measured:
Format in all cases: in vivo
[1] = tested on: Digitaria sanguinalis (DIGSA); experiment: greenhouse post-emergence herbicidal activity on DIGSA
Description: (§1) For the post-emergence treatment, the test plants were first grown to a height of 3 to 20 cm, depending on the plant habit, and only then treated. Here, the herbicidal compositions were suspended or emulsified in water as distribution medium and sprayed using finely distributing nozzles.
(§2) The respective herbicides B and/or safener were formulated as 10% by weight strength suspension concentrate and introduced to the spray liquor with the amount of solvent system used for applying the active compound. Herbicides A, C and/or safener were used as commercially available formulations and introduced to the spray liquor with the amount of solvent system used for applying the active compound. In the examples, the solvent used was water.
(§3) The test period extended over 21 days. During this time, the plants were tended, and their response to the treatments with active compound was evaluated.
(§4) The evaluation for the damage caused by the chemical compositions was carried out using a scale from 0 to 100%, compared to the untreated control plants. Here, 0 means no damage and 100 means complete destruction of the plants.
(§5) The value E, which is to be expected if the activity of the individual compounds is just additive, was calculated using the method of S. R. Colby (1967) “Calculating synergistic and antagonistic responses of herbicide combinations”, Weeds 15, p. 22 ff. For two component mixtures the value E was calculated by the following formula E=X+Y−(X·Y/100)
(§6) For three component mixtures the value E was calculated by the following formula E=X+Y+Z−(XY+XZ+YZ)/100+(X·YZ/10000) where X=effect in percent using herbicide A at an application rate a; • Y=effect in percent using herbicide B at an application rate b; • Z=effect in percent using herbicide C at an application rate c; • E=expected effect (in %) of A+B at application rates a+b. or • E=expected effect (in %) of A+B+C at application rates a+b+c.
(§7) If the value observed in this manner is higher than the value E calculated according to Colby, a synergistic effect is present.
(§8) Tables 1 to 12 relate to the herbicidal activity of the individual actives and of their combinations in post-emergence application assessed 20 DAT.

[2] = tested on: Chenopodium album (CHEAL); experiment: greenhouse post-emergence herbicidal activity on CHEAL
Description: as §1, §2, §3, §4, §5, §6, §7, §8

[3] = tested on: Alopecurus myosuroides (ALOMY); experiment: greenhouse post-emergence herbicidal activity on ALOMY
Description: as §1, §2, §3, §4, §5, §6, §7, §8

[4] = tested on: Polygonum convolvulus (POLCO); experiment: greenhouse post-emergence herbicidal activity on POLCO; settings: Fallopia convolvulus, 480 h, read-out: % activity 20 DAT
Description: as §1, §2, §3, §4, §5, §6, §7, §8

[5] = tested on: Abutilon theophrasti (ABUTH); experiment: greenhouse post-emergence herbicidal activity on ABUTH
Description: as §1, §2, §3, §4, §5, §6, §7, §8

[6] = tested on: Galium aparine (GALAP); experiment: greenhouse post-emergence herbicidal activity on GALAP; settings: Galium aparine, 480 h
Description: as §1, §2, §3, §4, §5, §6, §7, §8

[7] = tested on: Avena fatua (AVEFA); experiment: greenhouse post-emergence herbicidal activity on AVEFA; settings: 480 h, read-out: % activity 20 DAT
Description: as §1, §2, §3, §4, §5, §6, §7, §8

[8] = tested on: Lolium multiflorum (LOLMU); experiment: greenhouse post-emergence herbicidal activity on LOLMU
Description: as §1, §2, §3, §4, §5, §6, §7, §8

[9] = tested on: Matricaria inermis (MATIN); experiment: greenhouse post-emergence herbicidal activity on MATIN
Description: as §1, §2, §3, §4, §5, §6, §7, §8

[10] = tested on: Sinapis arvensis (SINAR); experiment: greenhouse post-emergence herbicidal activity on SINAR; settings: solo application, 135 g ai/ha
Description: as §1, §2, §3
The evaluation for the damage caused by the chemical compositions was carried out using a scale from 0 to 100%, compared to the untreated control plants. […]
The value E, which is to be expected if the activity of the individual compounds is just additive, was calculated using the method of S. R. Colby (1967) “Calculating synergistic and antagonistic responses of herbicide combinations”, Weeds 15, p. […] For two component mixtures the value E was calculated by the following formula E=X+Y−(X·Y/100)
as §6, §7, §8

[11] = Digitaria sanguinalis, 480 h, read-out: % activity 20 DAT
[12] = Alopecurus myosuroides, 480 h, read-out: % activity 20 DAT, post-emergence, solo application, 6.25 g ai/ha

CCc1nc2c(Cl)cc(Cl)c(-c3nn(C)c(OC(F)F)c3Br)c2o1 [Compound B] gave an inhibition at 6.25 g/ha [1, 11] of 50%, an inhibition at 6.25 g/ha ([2]; Chenopodium album, 480 h, read-out: % activity 20 DAT, post-emergence, solo application, 6.25 g ai/ha) of 85% and an inhibition at 6.25 g/ha [3, 12] of 20%. The inhibition at 12.5 g/ha ([3]; Alopecurus myosuroides, 480 h, read-out: % activity 20 DAT, post-emergence, solo application, 12.5 g ai/ha) was 35%, the inhibition at 6.25 g/ha [4] was 90% and the inhibition at 6.25 g/ha ([5]; Abutilon theophrasti, 480 h, read-out: % activity 20 DAT, post-emergence, solo application, 6.25 g ai/ha) was 98%.

In the case of C#CCN1C(=O)COc2cc(F)c(-n3c(=O)n(C)c(=S)n(C)c3=O)cc21 [Compound D], the inhibition at 3.13 g/ha ([6]; read-out: % activity 20 DAT, post-emergence, solo application, 3.13 g ai/ha) is reported as 30%, the inhibition at 6.25 g/ha ([6]; read-out: % activity 20 DAT, post-emergence, solo application, 6.25 g ai/ha) is reported as 30% and the inhibition at 3.13 g/ha [1, 11] is reported as 35%. The inhibition at 3.13 g/ha ([2]; Chenopodium album, 480 h, read-out: % activity 20 DAT, post-emergence, solo application, 3.13 g ai/ha) was 45%, the inhibition at 6.25 g/ha [7] was 75% and the inhibition at 3.13 g/ha ([3]; Alopecurus myosuroides, 480 h, read-out: % activity 20 DAT, post-emergence, solo application, 3.13 g ai/ha) was 30%. For the same compound, the inhibition at 6.25 g/ha [3, 12] was 40%, the inhibition at 3.13 g/ha [4] was 95% and the inhibition at 3.13 g/ha ([8]; Lolium multiflorum, 480 h, read-out: % activity 20 DAT, post-emergence, solo application, 3.13 g ai/ha) was 40%.

CCNc1nc(Cl)nc(NC(C)C)n1 [atrazin] was tested, and the inhibition at 62.5 g/ha ([1]; Digitaria sanguinalis, 480 h, solo application, 62.5 g ai/ha, read-out: % activity 20 DAT) was 0%, the inhibition at 62.5 g/ha ([2]; Chenopodium album, 480 h, solo application, 62.5 g ai/ha, read-out: % activity 20 DAT) was 20% and the inhibition at 125 g/ha ([2]; Chenopodium album, 480 h, solo application, 125 g ai/ha, read-out: % activity 20 DAT) was 60%. The inhibition at 250 g/ha ([3]; Alopecurus myosuroides, 480 h, solo application, 250 g ai/ha, read-out: % activity 20 DAT) was 50%.

In the case of COc1c(Cl)ccc(Cl)c1C(=O)O [dicamba], the inhibition at 50 g/ha ([2]; Chenopodium album, 480 h, solo application, 50 g ai/ha, read-out: % activity 20 DAT) is reported as 50%, the inhibition at 25 g/ha ([3]; Alopecurus myosuroides, 480 h, solo application, 25 g ai/ha, read-out: % activity 20 DAT) is reported as 10% and the inhibition at 25 g/ha ([9]; Matricaria, 480 h, read-out: % activity 20 DAT, post-emergence, solo application, 25 g ai/ha) is reported as 45%. It also gave an inhibition at 50 g/ha ([8]; Lolium multiflorum, 480 h, solo application, 50 g ai/ha, read-out: % activity 20 DAT) of 0% and an inhibition at 50 g/ha ([5]; Abutilon theophrasti, 480 h, solo application, 50 g ai/ha, read-out: % activity 20 DAT) of 50%.

For COC[C@H](C)N(C(=O)CCl)c1c(C)csc1C [dimethenamid-P], the “% activity 20 DAT” value ([1]; solo application, 135 g ai/ha) was 50%, the “% activity 20 DAT” value ([1]; solo application, 270 g ai/ha) was 50% and the “% activity 20 DAT” value ([2]; solo application, 270 g ai/ha) was 20%. The “% activity 20 DAT” value ([3]; solo application, 270 g ai/ha) was 20%, the “% activity 20 DAT” value ([3]; solo application, 540 g ai/ha) was 30% and the “% activity 20 DAT” value [10] was 45%. For the same compound, the “% activity 20 DAT” value ([9]; solo application, 135 g ai/ha) was 0%, the “% activity 20 DAT” value ([9]; solo application, 270 g ai/ha) was 0% and the “% activity 20 DAT” value ([8]; solo application, 135 g ai/ha) was 60%. The “% activity 20 DAT” value ([5]; solo application, 135 g ai/ha) was 15% and the “% activity 20 DAT” value ([5]; solo application, 540 g ai/ha) was 15%.

C#CCN1C(=O)COc2cc(F)c(N3C(=O)C4=C(CCCC4)C3=O)cc21 [flumioxazin] showed an inhibition at 6.25 g/ha ([6]; solo application, 6.25 g ai/ha, read-out: % activity 20 DAT) of 30%, an inhibition at 12.5 g/ha ([6]; solo application, 12.5 g ai/ha, read-out: % activity 20 DAT) of 30% and an inhibition at 6.25 g/ha ([1]; Digitaria sanguinalis, 480 h, solo application, 6.25 g ai/ha, read-out: % activity 20 DAT) of 15%. For the same compound, the inhibition at 6.25 g/ha ([2]; Chenopodium album, 480 h, solo application, 6.25 g ai/ha, read-out: % activity 20 DAT) was 0%, the inhibition at 12.5 g/ha ([2]; Chenopodium album, 480 h, solo application, 12.5 g ai/ha, read-out: % activity 20 DAT) was 30% and the inhibition at 6.25 g/ha ([7]; solo application, 6.25 g ai/ha) was 35%. The inhibition at 6.25 g/ha ([3]; Alopecurus myosuroides, 480 h, solo application, 6.25 g ai/ha, read-out: % activity 20 DAT) was 20%, the inhibition at 12.5 g/ha ([3]; Alopecurus myosuroides, 480 h, solo application, 12.5 g ai/ha, read-out: % activity 20 DAT) was 20% and the inhibition at 6.25 g/ha ([9]; Matricaria, 480 h, solo application, 6.25 g ai/ha, read-out: % activity 20 DAT) was 65%.
